# Test results published in publication PMC13492380, “Dissecting Structural and Functional Determinants of Microtubules Stabilization through Guided Chemical Modulation” (Journal of Medicinal Chemistry, 2026).
# Like-named read-outs stand apart in the source and are kept apart here.
# Assays:
# A549 cells = test: MTT cytotoxicity assay, A549; assay type: cell-based; details: Homo sapiens, read-out: Cytotoxicity IC50 A549
# Method: Antiproliferative assays were performed as described.
# [1] = system: Tau441 interaction with MTs in axon-like processes of neuronally differentiated PC12 cells; test: Fluorescence decay after photoactivation (FDAP) of PAGFP-Tau441; assay type: cell-based, human
# From the text: Building on the role of Tau dynamics in axonal MT function, , we next used Tau as a structural sensitive neuronal MAP to assess whether drug-imposed MT lattice states alter MAP recognition. To this end, we initially performed fluorescence decay after photoactivation (FDAP) experiments to assess potential changes in the interaction of the longest human Central Nervous System Tau isoform (Tau441) with MTs in axon-like processes of model neurons. We tagged Tau at the N-terminus with photoactivatable GFP (PAGFP) and expressed it exogenously in PC12 cells differentiated into a neuronal phenotype (Figure A). After locally activating a subset of labeled Tau molecules in the middle of a process, we monitored FDAP over time in the activated region (Figure B). Tau gradually dissipated from the activation site.
# To quantify changes in Tau’s effective diffusion constant (D eff) as a result of its dynamic interactions with MTs, we measured FDAP at various compound concentrations and fitted the resulting decay curves using a previously established reaction-diffusion model. […] Remarkably, the GDP-like MTs stabilized by compound 1b remain largely neutral with respect to Tau-MT interactions.
# PC12 cells (originally obtained from J.A. Wagner, Harvard Medical School) were cultured in serum-DMEM (DMEM supplemented with 10% fetal bovine serum and antibiotics (100 U/ml penicillin and 100 μg/mL streptomycin)) at 37 °C with 10% CO2 in a humidified incubator. For live cell imaging, cells were transfected with the respective pRc/CMV expression vector using Lipofectamine 2000 (Thermo-Fisher Scientific, USA) as previously described. FDAP experiments were performed essentially as previously described. Briefly, cells expressing PAGFP-tagged Tau441 were plated on 35 mm glass-bottom culture dishes (MatTek, USA), transfected, and neuronally differentiated by medium exchange to serum-reduced DMEM containing 100 ng/mL 7S mouse NGF. After 3 days, the medium was exchanged to serum-reduced DMEM without phenol red with NGF, and the respective compound (or DMSO for carrier control) were added at the desired concentration. After 20 h, live cell imaging was performed using a laser scanning microscope (Nikon Eclipse Ti2-) equipped with a LU-N4 laser unit with 488 and 405 nm lasers and a Fluor 60× ultraviolet-corrected objective lens (NA 1.4) and a C2+scanner enclosed in an incubation chamber at 37 °C and 5% CO2. Photoactivation was performed with a 405 nm laser using the microscope software (NIS-Elements version AR 5.02.03). The following steps were performed in a photoactivation experiment. A transfected cell with a suitable process (minimum length 30 μm) was selected in the field of view (50 μm × 50 μm) and a preactivation image was saved at 488 nm excitation. The scan window was reduced to a 6-μm diameter activation spot (corresponding to 130 pixels), and photoactivation was performed in the center of the neurite using the 405 nm blue diode (laser intensity 1.0%; corresponding to an output of 30 μW) with two scans at a pixel dwell time of 4.08 μs (corresponding to a total activation time at the spot of 1.1 ms). The scan window was enlarged to the initial size, and the first scan was performed after 1 s with the 488 nm laser at the lowest practical laser intensity. Subsequent images were acquired at a rate of 1 frame/s. 112 images with a resolution of 256 × 256 pixels were collected per activated neurite. […] Effective diffusion constants were determined by fitting the fluorescence decay data from the photoactivation experiments using a one-dimensional diffusion model function for FDAP according to. All data sets were tested for normality using the D’Agostino-Pearson and Shapiro-Wilk tests. Statistical outliers were identified using the ROUT method. Equality was assessed using a F-test to compare variances. To compare different concentrations, statistically significant differences from control were determined by a one-way ANOVA with Dunnett’s post hoc test. […]
Structure (SMILES),"IC50 (A549 cells; A549, 48 h)","effect on Tau's effective diffusion constant (D eff) / Tau-MT interaction ([1]; PC12 cells, 20 h treatment)","IC50 (A549 cells; A549, MTT, 48 h, mean ± SEM)",unbound Tau population ([1]; 20 nM PTX (control 7.5%)),decrease in the unbound Tau population ([1]; 20 nM PTX vs control),"concentration with notable reduction of Tau's D eff ([1]; PC12 cells, 20 h treatment)"
"CC(=O)OC1C(=O)C2(C)C(OC(=O)CCCCC(=O)OC3CCc4ccccc43)CC3OCC3(OC(C)=O)C2C(OC(=O)c2ccccc2)C2(O)CC(OC(=O)C(O)C(NC(=O)c3ccccc3)c3ccccc3)C(C)=C1C2(C)C (stereo not drawn) [1a, 7-O-(6″-O-(2‴,3‴-Dihydroinden-1‴-yl)hexanedioyl) Paclitaxel]",510 ± 40 nM,increasing Tau’s D eff,–,–,–,–
"COc1ccc2c(c1)CC(NC(=O)CCCCCCCC(=O)OC1CC3OCC3(OC(C)=O)C3C(OC(=O)c4ccccc4)C4(O)CC(OC(=O)C(O)C(NC(=O)c5ccccc5)c5ccccc5)C(C)=C(C(OC(C)=O)C(=O)C13C)C4(C)C)CC2 [1b, 7-O-((S)-9″-(7‴-Methoxy-1‴,2‴,3‴,4‴-tetrahydronaphthalen-2‴-yl)amino) −9″-oxononanoyl) Paclitaxel]",–,did not significantly alter Tau-MT interactions,220 ± 20 nM,–,–,–
"CC(=O)O[C@H]1C(=O)[C@@]2(C)[C@H]([C@H](OC(=O)c3ccccc3)[C@]3(O)C[C@H](OC(=O)[C@H](O)[C@@H](NC(=O)c4ccccc4)c4ccccc4)C(C)=C1C3(C)C)[C@]1(OC(C)=O)CO[C@@H]1C[C@@H]2O [PTX, Paclitaxel]",–,significantly reduced Tau’s D eff,3.1 ± 0.7 nM,4.4%,~40%,5 nM
